According to PubChem BioAssay AID651841 (Broad Institute, 2012):
Where “and” joins values, the source holds several entries; their conditions need not be identical. Equal entries are not always repeated. Calls of active or inactive are those of the source. No rule for the calls is given here.

Test system: CAI-1 sensor histidine kinase CqsS (Vibrio cholerae)
Assay: CqsS sensor histidine kinase agonist dose response, Vibrio cholerae WN1103 delta luxQ, confirmatory (AID 651841)
Conditions: V. cholerae WN1103 delta luxQ, luciferase light, 6 h; for activation: at 80 µM (top of the series)

CCn1nnnc1CCc1ccc(N2CCCC2)cc1
AC40: 713 nM

O=C(Cc1ccccc1OC(F)(F)F)NC1CCCC1
activation: 0.045% (inactive)

CCn1nnnc1NCc1cccc(OC)c1
activation: 24.5% (inactive)

CCn1nccc1NCc1ccc(N2CCCC2)cc1
activation: 0.149% (inactive)

COc1ccc(CC(=O)NC2CCCC2)cc1
activation: 13% (inactive)

CC(C)NC(=O)Cc1ccc(-c2ccccc2)cc1
AC40: 2500 nM

CCn1nnnc1NCc1ccccc1N1CCCC1
activation: 0.052% (inactive)

CS(=O)(=O)c1ccc(CC(=O)NC2CCCC2)cc1
activation: 0.008% (inactive)

CCCn1nnnc1NCc1ccc(C(C)C)cc1
AC40: 319 nM

CCn1nccc1/N=C/c1ccc(N2CCCC2)cc1
activation: 0.487% (inactive)

Cc1ccccc1CC(=O)NC1CCCC1
activation: 0.164% (inactive)

O=C(Cc1ccccc1F)NC1CCCC1
activation: 0.603% (inactive)

O=C(Cc1cccc(F)c1)NC1CCCC1
activation: 0.377% (inactive)

c1ccc(-n2nnnc2NCc2ccc(N3CCCC3)cc2)cc1
activation: 0.501% (inactive)

O=C(Cc1ccc(-c2ccccc2)cc1)NC1CCOCC1
AC40: 1200 nM

CCn1nnc(NCc2ccc(C)cc2)n1
activation: 0.069% (inactive)

O=C(Cc1ccccc1Cl)NC1CCCC1
activation: 0.107% (inactive)

CCn1nnnc1NCc1ccc(N2CCCCC2)cc1
AC40: 55.5 nM

CCc1ccccc1NCc1ccc(N2CCCC2)cc1
activation: 0.105% (inactive)

CCCn1nnnc1NCc1ccccc1Cl
activation: 0.104% (inactive)

Cn1nnnc1NCc1ccc(N2CCCC2)cc1
AC40: 351 nM

O=C(Cc1cccc(OC(F)(F)F)c1)NC1CCCC1
activation: 2.18% (inactive)

c1ccc(Cn2nnc(NCc3ccc(N4CCCC4)cc3)n2)cc1
activation: 0.159% (inactive)

CCn1nnc(CCc2ccc(N3CCCC3)cc2)n1
activation: 0.131% (inactive)

CCn1nnnc1NCc1cccc(N2CCCC2)c1
AC40: 51.2 nM

O=C(Cc1ccc(-c2ccccc2)cc1)NC1CCCC1
AC40: 212 nM and 313 nM

O=C(Cc1ccc(-c2ccccc2)cc1)NC1CCC1
AC40: 280 nM

CCCCn1nnnc1NCc1ccc(N2CCCC2)cc1
AC40: 2640 nM

CCn1nnnc1NCc1ccc(C(C)C)cc1
AC40: 5.01 nM and 45.1 nM

O=C(Cc1ccccc1C(F)(F)F)NC1CCCC1
activation: 0.044% (inactive)

CC(C)c1ccc(CNc2nnnn2C)cc1
AC40: 577 nM

O=C(Cc1ccc(-c2ccccc2)cc1)NC1CCCCC1
AC40: 8980 nM

O=C(NCc1ccc(-c2ccccc2)cc1)C1CCCC1
activation: 3.17% (inactive)

CCC(C)NC(=O)Cc1ccc(-c2ccccc2)cc1 (stereo not given)
AC40: 2060 nM

CCC(CC)NC(=O)Cc1ccc(-c2ccccc2)cc1
AC40: 2200 nM

CCCn1nnnc1NCc1ccc(N2CCCC2)cc1
AC40: 12.1 nM

Cc1ccc(Cn2nnnc2NCc2ccc(N3CCCC3)cc2)cc1
activation: 0.549% (inactive)

c1ccc(Cn2nnnc2NCc2ccc(N3CCCC3)cc2)cc1
activation: 0.279% (inactive)

Fc1ccc(Cn2nnnc2NCc2ccc(N3CCCC3)cc2)cc1
activation: 0.54% (inactive)

CCn1nnnc1NCc1ccc(N2CCCC2)cc1
AC40: 10.7 nM
